“And” between values parts separate entries of the source, which are not always exact repeats. Identical values can stand only once. Like-named read-outs stand apart in the source and are kept apart here.
Columns and labels:
Test in all cases: biochemical
Type in all cases: binding
SfurOBP3 = SfurOBP3 (Sogatella furcifera, UniProt V5T818); settings: for Fluorescence competitive binding assay, fluorescence intensity: OBP3, three replicate columns
Procedure: (§1) Thirty-six rice odorants ([He et al., 2014]; [Wang et al., 2017]) and 1-N-phenyl-naphthylamine (1-NPN) were purchased from Sigma-Aldrich (St Louis, MO, USA). These odorants and 1-NPN were dissolved in high-performance liquid chromatography (HPLC) purify grade methanol for 1.0 mM as work solution.
(§2) Fluorescence competitive binding assays were performed on Tecan Spark 10M (Tecan Group Ltd., Männedorf, Switzerland) with the F96 Black ELIAS Plate (Sangon) ([Khuhro et al., 2017]; [Liu et al., 2017]). The solutions were excited at 337 nm and emission spectra were recorded between 390 and 490 nm. First, to test the binding constants of 1-NPN to the SfurOBPs, a 2.0 µM solution of protein in 50 mM Tris-HCl (pH = 7.4) was titrated with 1 mM 1-NPN to achieve virous concentrations. Next, the competitive binding of each odorant was measured using the 1-NPN as fluorescent reporter and odorant as competitor. The concentrations of protein and 1-NPN were both 2.0 µM, the odorant added after protein and 1-NPN added into the well of ELIAS Plate for 2 min. The final concentrations of each competitor were 2, 4, 6, 8, 10, 12, 14, 16, 18 and 20 µM. After 2 min of odorant added, the fluorescence intensity was measured and recorded. The volume of mixed solution in each well was maintained at 250 µL. Each interaction was performed in triplicates.
(§3) GraphPad Prism 7.0 software (GraphPad Software, Inc., La Jolla, CA, USA) was used to calculated and generated the binding constants (K1−NPN) of 1-NPN to SfurOBPs and relative Scatchard plots ([Ban et al., 2003]; [Li et al., 2016]). Dissociation constant (Ki) of each odorant to SfurOBP was computed from the corresponding IC50 value (the half maximal inhibitory concentration), using the following equation: Ki=[IC50]/(1 + [1-NPN]/K1−NPN), where [1-NPN] is the free concentration of 1-NPN and K1−NPN is the dissociation constant of the complex protein/1-NPN.

SfurOBP1 = SfurOBP1 (Sogatella furcifera, UniProt V5T8N5); settings: for Fluorescence competitive binding assay, fluorescence intensity: OBP1, three replicate columns
Procedure: as §1, §2, §3

SfurOBP11 = SfurOBP11 (Sogatella furcifera, UniProt V5T6E3)
Procedure: as §1, §2, §3

SfurOBP2 = SfurOBP2 (Sogatella furcifera, UniProt V5T759)
Procedure: as §1, §2, §3

[1] = SfurOBP3, protein and 1-NPN both 2.0 µM, competitor 2-20 µM, read-out: IC50
[2] = SfurOBP1, protein and 1-NPN both 2.0 µM, competitor 2-20 µM, read-out: IC50
[3] = SfurOBP11, protein and 1-NPN both 2.0 µM, competitor 2-20 µM, read-out: IC50
[4] = SfurOBP2, protein and 1-NPN both 2.0 µM, competitor 2-20 µM, read-out: IC50

Sequence of SfurOBP11 (V5T6E3 entry or part of it): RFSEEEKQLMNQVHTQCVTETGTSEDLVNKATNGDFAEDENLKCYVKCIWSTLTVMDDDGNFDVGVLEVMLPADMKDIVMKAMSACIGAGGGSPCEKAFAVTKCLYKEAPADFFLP
Sequence of SfurOBP2 (V5T759 entry or part of it): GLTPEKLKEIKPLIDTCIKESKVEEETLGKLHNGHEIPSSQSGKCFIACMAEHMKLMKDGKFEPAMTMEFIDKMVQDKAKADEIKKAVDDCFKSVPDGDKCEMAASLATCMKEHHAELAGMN
Sequence of SfurOBP3 (V5T818 entry or part of it): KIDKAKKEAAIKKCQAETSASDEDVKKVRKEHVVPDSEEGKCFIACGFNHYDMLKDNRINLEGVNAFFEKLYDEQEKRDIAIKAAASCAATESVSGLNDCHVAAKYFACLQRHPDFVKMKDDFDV
Sequence of SfurOBP1 (V5T8N5 entry or part of it): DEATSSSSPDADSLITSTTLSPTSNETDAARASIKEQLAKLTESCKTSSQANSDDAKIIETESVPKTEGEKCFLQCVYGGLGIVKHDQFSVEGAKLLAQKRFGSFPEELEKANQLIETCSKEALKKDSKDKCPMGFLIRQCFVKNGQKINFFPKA

## CCCCCCCCCCCCCCCC(=O)OC [methyl hexadecanoate]
SfurOBP3; [1]
  IC50: > 20 µM
SfurOBP1; [2]
  IC50: > 20 µM
SfurOBP11; [3]
  IC50: > 20 µM
SfurOBP2; [4]
  IC50: > 20 µM

## Cc1cc(C(C)(C)C)c(O)c(C(C)(C)C)c1 [2,6-di-tert-butyl-4-methylphenol]
SfurOBP3; [1]
  IC50: > 20 µM
SfurOBP1; [2]
  IC50: > 20 µM
SfurOBP11; [3]
  IC50: 18 µM
SfurOBP2; [4]
  IC50: > 20 µM

## O=C(c1ccccc1)c1ccccc1 [benzophenone]
SfurOBP3
  IC50: > 20 µM
SfurOBP3; ligand concentration 2
  Fluorescence competitive binding assay, fluorescence intensity: 66323 and 67865 and 69406
SfurOBP3; ligand concentration 4
  Fluorescence competitive binding assay, fluorescence intensity: 72270 and 71733 and 72815
SfurOBP3; ligand concentration 6
  Fluorescence competitive binding assay, fluorescence intensity: 57537 and 56825 and 55208
SfurOBP3; ligand concentration 8
  Fluorescence competitive binding assay, fluorescence intensity: 58199 and 53071 and 55635
SfurOBP3; ligand concentration 10
  Fluorescence competitive binding assay, fluorescence intensity: 54477 and 51518 and 50551
SfurOBP3; ligand concentration 12
  Fluorescence competitive binding assay, fluorescence intensity: 55084 and 52185 and 53632
SfurOBP3; ligand concentration 14
  Fluorescence competitive binding assay, fluorescence intensity: 52805 and 53281 and 53058
SfurOBP3; ligand concentration 16
  Fluorescence competitive binding assay, fluorescence intensity: 41260 and 41464 and 41332
SfurOBP3; ligand concentration 18
  Fluorescence competitive binding assay, fluorescence intensity: 39853 and 41331 and 40577
SfurOBP3; ligand concentration 20
  Fluorescence competitive binding assay, fluorescence intensity: 39610 and 40773 and 38426
SfurOBP1
  IC50: > 20 µM
SfurOBP1; ligand concentration 2 (μM)
  Fluorescence competitive binding assay, fluorescence intensity: 4924 and 4810 and 4695
SfurOBP1; ligand concentration 4 (μM)
  Fluorescence competitive binding assay, fluorescence intensity: 5262 and 5281 and 5299
SfurOBP1; ligand concentration 6 (μM)
  Fluorescence competitive binding assay, fluorescence intensity: 5268 and 5717 and 5292
SfurOBP1; ligand concentration 8 (μM)
  Fluorescence competitive binding assay, fluorescence intensity: 5360 and 5130 and 5580
SfurOBP1; ligand concentration 10 (μM)
  Fluorescence competitive binding assay, fluorescence intensity: 5344 and 5432 and 5519
SfurOBP1; ligand concentration 12 (μM)
  Fluorescence competitive binding assay, fluorescence intensity: 5178 and 5515 and 5347
SfurOBP1; ligand concentration 14 (μM)
  Fluorescence competitive binding assay, fluorescence intensity: 5173 and 5557 and 5365
SfurOBP1; ligand concentration 16 (μM)
  Fluorescence competitive binding assay, fluorescence intensity: 5828 and 4931 and 5380
SfurOBP1; ligand concentration 18 (μM)
  Fluorescence competitive binding assay, fluorescence intensity: 5476 and 5297 and 5257
SfurOBP1; ligand concentration 20 (μM)
  Fluorescence competitive binding assay, fluorescence intensity: 5039 and 5512 and 5595
SfurOBP11
  IC50: 16.3 µM
SfurOBP11; ligand concentration 2, replicate 1
  Fluorescence intensity, fluorescence competitive binding assay, OBP11: 21450
SfurOBP11; ligand concentration 2, replicate 2
  Fluorescence intensity, fluorescence competitive binding assay, OBP11: 21005
SfurOBP11; ligand concentration 2, replicate 3
  Fluorescence intensity, fluorescence competitive binding assay, OBP11: 21027
SfurOBP11; ligand concentration 4, replicate 1
  Fluorescence intensity, fluorescence competitive binding assay, OBP11: 20588
SfurOBP11; ligand concentration 4, replicate 2
  Fluorescence intensity, fluorescence competitive binding assay, OBP11: 20654
SfurOBP11; ligand concentration 4, replicate 3
  Fluorescence intensity, fluorescence competitive binding assay, OBP11: 20719
SfurOBP11; ligand concentration 6, replicate 1
  Fluorescence intensity, fluorescence competitive binding assay, OBP11: 19889
SfurOBP11; ligand concentration 6, replicate 2
  Fluorescence intensity, fluorescence competitive binding assay, OBP11: 20401
SfurOBP11; ligand concentration 6, replicate 3
  Fluorescence intensity, fluorescence competitive binding assay, OBP11: 19317
SfurOBP11; ligand concentration 8, replicate 1
  Fluorescence intensity, fluorescence competitive binding assay, OBP11: 19997
SfurOBP11; ligand concentration 8, replicate 2
  Fluorescence intensity, fluorescence competitive binding assay, OBP11: 20308
SfurOBP11; ligand concentration 8, replicate 3
  Fluorescence intensity, fluorescence competitive binding assay, OBP11: 18308
SfurOBP11; ligand concentration 10, replicate 1
  Fluorescence intensity, fluorescence competitive binding assay, OBP11: 18532
SfurOBP11; ligand concentration 10, replicate 2
  Fluorescence intensity, fluorescence competitive binding assay, OBP11: 18946
SfurOBP11; ligand concentration 10, replicate 3
  Fluorescence intensity, fluorescence competitive binding assay, OBP11: 17435
SfurOBP11; ligand concentration 12, replicate 1
  Fluorescence intensity, fluorescence competitive binding assay, OBP11: 17719
SfurOBP11; ligand concentration 12, replicate 2
  Fluorescence intensity, fluorescence competitive binding assay, OBP11: 18881
SfurOBP11; ligand concentration 12, replicate 3
  Fluorescence intensity, fluorescence competitive binding assay, OBP11: 17057
SfurOBP11; ligand concentration 14, replicate 1
  Fluorescence intensity, fluorescence competitive binding assay, OBP11: 16744
SfurOBP11; ligand concentration 14, replicate 2
  Fluorescence intensity, fluorescence competitive binding assay, OBP11: 17392
SfurOBP11; ligand concentration 14, replicate 3
  Fluorescence intensity, fluorescence competitive binding assay, OBP11: 16199
SfurOBP11; ligand concentration 16, replicate 1
  Fluorescence intensity, fluorescence competitive binding assay, OBP11: 16069
SfurOBP11; ligand concentration 16, replicate 2
  Fluorescence intensity, fluorescence competitive binding assay, OBP11: 15955
SfurOBP11; ligand concentration 16, replicate 3
  Fluorescence intensity, fluorescence competitive binding assay, OBP11: 16012
SfurOBP11; ligand concentration 18, replicate 1
  Fluorescence intensity, fluorescence competitive binding assay, OBP11: 16341
SfurOBP11; ligand concentration 18, replicate 2
  Fluorescence intensity, fluorescence competitive binding assay, OBP11: 15453
SfurOBP11; ligand concentration 18, replicate 3
  Fluorescence intensity, fluorescence competitive binding assay, OBP11: 16084
SfurOBP11; ligand concentration 20, replicate 1
  Fluorescence intensity, fluorescence competitive binding assay, OBP11: 15275
SfurOBP11; ligand concentration 20, replicate 2
  Fluorescence intensity, fluorescence competitive binding assay, OBP11: 14432
SfurOBP11; ligand concentration 20, replicate 3
  Fluorescence intensity, fluorescence competitive binding assay, OBP11: 14489
SfurOBP2
  IC50: > 20 µM
SfurOBP2; ligand concentration 2 (unit not given), replicate column 1 of 3
  Fluorescence competitive binding assay, OBP2 (raw fluorescence reading): 16222
SfurOBP2; ligand concentration 2 (unit not given), replicate column 2 of 3
  Fluorescence competitive binding assay, OBP2 (raw fluorescence reading): 16950
SfurOBP2; ligand concentration 2 (unit not given), replicate column 3 of 3
  Fluorescence competitive binding assay, OBP2 (raw fluorescence reading): 16565
SfurOBP2; ligand concentration 4 (unit not given), replicate column 1 of 3
  Fluorescence competitive binding assay, OBP2 (raw fluorescence reading): 15645
SfurOBP2; ligand concentration 4 (unit not given), replicate column 2 of 3
  Fluorescence competitive binding assay, OBP2 (raw fluorescence reading): 17125
SfurOBP2; ligand concentration 4 (unit not given), replicate column 3 of 3
  Fluorescence competitive binding assay, OBP2 (raw fluorescence reading): 16794
SfurOBP2; ligand concentration 6 (unit not given), replicate column 1 of 3
  Fluorescence competitive binding assay, OBP2 (raw fluorescence reading): 16160
SfurOBP2; ligand concentration 6 (unit not given), replicate column 2 of 3
  Fluorescence competitive binding assay, OBP2 (raw fluorescence reading): 16241
SfurOBP2; ligand concentration 6 (unit not given), replicate column 3 of 3
  Fluorescence competitive binding assay, OBP2 (raw fluorescence reading): 16073
SfurOBP2; ligand concentration 8 (unit not given), replicate column 1 of 3
  Fluorescence competitive binding assay, OBP2 (raw fluorescence reading): 14263
SfurOBP2; ligand concentration 8 (unit not given), replicate column 2 of 3
  Fluorescence competitive binding assay, OBP2 (raw fluorescence reading): 14653
SfurOBP2; ligand concentration 8 (unit not given), replicate column 3 of 3
  Fluorescence competitive binding assay, OBP2 (raw fluorescence reading): 15131
SfurOBP2; ligand concentration 10 (unit not given), replicate column 1 of 3
  Fluorescence competitive binding assay, OBP2 (raw fluorescence reading): 13747
SfurOBP2; ligand concentration 10 (unit not given), replicate column 2 of 3
  Fluorescence competitive binding assay, OBP2 (raw fluorescence reading): 14449
SfurOBP2; ligand concentration 10 (unit not given), replicate column 3 of 3
  Fluorescence competitive binding assay, OBP2 (raw fluorescence reading): 15134
SfurOBP2; ligand concentration 12 (unit not given), replicate column 1 of 3
  Fluorescence competitive binding assay, OBP2 (raw fluorescence reading): 12905
SfurOBP2; ligand concentration 12 (unit not given), replicate column 2 of 3
  Fluorescence competitive binding assay, OBP2 (raw fluorescence reading): 13209
SfurOBP2; ligand concentration 12 (unit not given), replicate column 3 of 3
  Fluorescence competitive binding assay, OBP2 (raw fluorescence reading): 14417
SfurOBP2; ligand concentration 14 (unit not given), replicate column 1 of 3
  Fluorescence competitive binding assay, OBP2 (raw fluorescence reading): 11252
SfurOBP2; ligand concentration 14 (unit not given), replicate column 2 of 3
  Fluorescence competitive binding assay, OBP2 (raw fluorescence reading): 12436
SfurOBP2; ligand concentration 14 (unit not given), replicate column 3 of 3
  Fluorescence competitive binding assay, OBP2 (raw fluorescence reading): 12979
SfurOBP2; ligand concentration 16 (unit not given), replicate column 1 of 3
  Fluorescence competitive binding assay, OBP2 (raw fluorescence reading): 11787
SfurOBP2; ligand concentration 16 (unit not given), replicate column 2 of 3
  Fluorescence competitive binding assay, OBP2 (raw fluorescence reading): 11767
SfurOBP2; ligand concentration 16 (unit not given), replicate column 3 of 3
  Fluorescence competitive binding assay, OBP2 (raw fluorescence reading): 11673
SfurOBP2; ligand concentration 18 (unit not given), replicate column 1 of 3
  Fluorescence competitive binding assay, OBP2 (raw fluorescence reading): 12436
SfurOBP2; ligand concentration 18 (unit not given), replicate column 2 of 3
  Fluorescence competitive binding assay, OBP2 (raw fluorescence reading): 11331
SfurOBP2; ligand concentration 18 (unit not given), replicate column 3 of 3
  Fluorescence competitive binding assay, OBP2 (raw fluorescence reading): 11969
SfurOBP2; ligand concentration 20 (unit not given), replicate column 1 of 3
  Fluorescence competitive binding assay, OBP2 (raw fluorescence reading): 11423
SfurOBP2; ligand concentration 20 (unit not given), replicate column 2 of 3
  Fluorescence competitive binding assay, OBP2 (raw fluorescence reading): 12242
SfurOBP2; ligand concentration 20 (unit not given), replicate column 3 of 3
  Fluorescence competitive binding assay, OBP2 (raw fluorescence reading): 11724

## CC(C)COC(=O)CCCCC(=O)OCC(C)C [diisobutyl adipate]
SfurOBP3; [1]
  IC50: > 20 µM
SfurOBP1; [2]
  IC50: > 20 µM
SfurOBP11; [3]
  IC50: > 20 µM
SfurOBP2; [4]
  IC50: > 20 µM

From article PMC6409085, “Three odorant-binding proteins are involved in the behavioral response of Sogatella furcifera to rice plant volatiles” (PeerJ, 2019)
